The source of these data is patent publication US11034650B2, “Compounds useful for treating a Mannheimia haemolytica or Histophilus somni infection” (Intervet Inc., priority 2016, dated 2021).

Structures are written as SMILES. Values after ≈ are worked out from the molar mass of the structure shown.

One assay concerns Pasteurella multocida PM 6391 (ATCC 43137, reference strain). The experiment in a line: MIC, broth-microdilution (CLSI VET01-A4), strain PM 6391. In kind it is cell-based. Particulars: Pasteurella multocida strain PM 6391, broth-microdilution; unit assumed. The essentials:
(§1)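 Broth microdilution per CLSI VET01-A4, using trays with a doubling dilution series of compound; results interpreted per CLSI VET01-S3. MIC taken as lowest concentration with no turbidity visible to the unaided eye.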
Regarding `CC(C)(O)[C@H](NC(=O)c1ccc(C#Cc2ccc(CNC3CC3)s2)cc1)C(=O)NO` [Compound 290], the MIC PM 6391 came out at 0.2 µg/mL (≈ 0.468 µM).

As for `CC(C)(O)[C@H](NC(=O)c1ccc(C#Cc2ccc(CNCc3ccco3)cc2)cc1)C(=O)NO` [Compound 231], the MIC PM 6391 is at most 0.1 µg/mL.

In the case of `CC(C)([C@H](NC(=O)c1ccc(C#Cc2ccc(CNCC#N)s2)cc1)C(=O)NO)S(C)(=O)=O` [Compound 318], the MIC PM 6391 worked out at 0.8 µg/mL (≈ 1.64 µM).

Compound `CC(C)[C@H](NC(=O)c1ccc(C#Cc2ccc(CNCc3ccccn3)cc2)cc1)C(=O)NO` [Compound 169] registered an MIC PM 6391 of 0.4 µg/mL (≈ 0.876 µM).

The test system of a further assay is Mannheimia haemolytica MH 10720 (154, BRD field isolate). The experiment in a line: MIC, broth-microdilution (CLSI VET01-A4), strain MH 10720. In kind it is cell-based. Particulars: Mannheimia haemolytica strain MH 10720, broth-microdilution; unit assumed. The essentials: as §1
In general terms: Broth dilution looks for growth in wells or tubes with falling amounts of substance.
Compound `CC(C)(O)[C@H](NC(=O)c1ccc(C#Cc2ccc(CNC3CC3)s2)cc1)C(=O)NO` [Compound 290] registered an MIC MH 10720 of at most 0.1 µg/mL.

Regarding `CC(C)(O)[C@H](NC(=O)c1ccc(C#Cc2ccc(CNCc3ccco3)cc2)cc1)C(=O)NO` [Compound 231], the MIC MH 10720 is at most 0.1 µg/mL.

In the case of `CC(C)([C@H](NC(=O)c1ccc(C#Cc2ccc(CNCC#N)s2)cc1)C(=O)NO)S(C)(=O)=O` [Compound 318], the MIC MH 10720 was at most 0.1 µg/mL.

`CC(C)[C@H](NC(=O)c1ccc(C#Cc2ccc(CNCc3ccccn3)cc2)cc1)C(=O)NO` [Compound 169] gave an MIC MH 10720 of 0.2 µg/mL (≈ 0.438 µM).

In another assay the test system is Mannheimia haemolytica MH 6357 (M7/2, reference strain, cattle infection strain). The experiment in a line: MIC, broth-microdilution (CLSI VET01-A4), strain MH 6357. The assay is classed as cell-based. Particulars: Mannheimia haemolytica strain MH 6357, broth-microdilution; unit assumed. The essentials:
as §1
Take `CC(C)(O)[C@H](NC(=O)c1ccc(C#Cc2ccc(CNC3CC3)s2)cc1)C(=O)NO` [Compound 290]: the MIC MH 6357 was at most 0.1 µg/mL.

As to `CC(C)(O)[C@H](NC(=O)c1ccc(C#Cc2ccc(CNCc3ccco3)cc2)cc1)C(=O)NO` [Compound 231], the MIC MH 6357 turned out to be 0.4 µg/mL (≈ 0.867 µM).

For `CC(C)([C@H](NC(=O)c1ccc(C#Cc2ccc(CNCC#N)s2)cc1)C(=O)NO)S(C)(=O)=O` [Compound 318], the MIC MH 6357 came out at 0.4 µg/mL (≈ 0.819 µM).

`CC(C)[C@H](NC(=O)c1ccc(C#Cc2ccc(CNCc3ccccn3)cc2)cc1)C(=O)NO` [Compound 169] returned an MIC MH 6357 of 0.4 µg/mL (≈ 0.876 µM).

The test system of another assay is Pasteurella multocida PM 12080 (IV102277-0093, BRD field isolate). The experiment in a line: MIC, broth-microdilution (CLSI VET01-A4), strain PM 12080. The assay is classed as cell-based. Particulars: Pasteurella multocida strain PM 12080, broth-microdilution; unit assumed. In a few lines: as §1
For `CC(C)(O)[C@H](NC(=O)c1ccc(C#Cc2ccc(CNC3CC3)s2)cc1)C(=O)NO` [Compound 290], the MIC PM 12080 was at most 0.1 µg/mL.

Consider `CC(C)(O)[C@H](NC(=O)c1ccc(C#Cc2ccc(CNCc3ccco3)cc2)cc1)C(=O)NO` [Compound 231], for which the MIC PM 12080 is at most 0.1 µg/mL.

On to `CC(C)([C@H](NC(=O)c1ccc(C#Cc2ccc(CNCC#N)s2)cc1)C(=O)NO)S(C)(=O)=O` [Compound 318], for which the MIC PM 12080 is 0.2 µg/mL (≈ 0.409 µM).

Compound `CC(C)[C@H](NC(=O)c1ccc(C#Cc2ccc(CNCc3ccccn3)cc2)cc1)C(=O)NO` [Compound 169] registered an MIC PM 12080 of 0.4 µg/mL (≈ 0.876 µM).

A further assay has as its system Mannheimia haemolytica MH 13065 (XB0446-6003.9, BRD field isolate). The experiment in a line: MIC, broth-microdilution (CLSI VET01-A4), strain MH 13065. The assay is classed as cell-based. Particulars: Mannheimia haemolytica strain MH 13065, broth-microdilution; unit assumed. In a few lines: as §1
`CC(C)(O)[C@H](NC(=O)c1ccc(C#Cc2ccc(CNC3CC3)s2)cc1)C(=O)NO` [Compound 290]: the MIC MH 13065 was at most 0.1 µg/mL.

Compound `CC(C)(O)[C@H](NC(=O)c1ccc(C#Cc2ccc(CNCc3ccco3)cc2)cc1)C(=O)NO` [Compound 231] returned an MIC MH 13065 of 0.2 µg/mL (≈ 0.433 µM).

In turn, `CC(C)([C@H](NC(=O)c1ccc(C#Cc2ccc(CNCC#N)s2)cc1)C(=O)NO)S(C)(=O)=O` [Compound 318] registered an MIC MH 13065 of 0.8 µg/mL (≈ 1.64 µM).

Regarding `CC(C)[C@H](NC(=O)c1ccc(C#Cc2ccc(CNCc3ccccn3)cc2)cc1)C(=O)NO` [Compound 169], the MIC MH 13065 was found to be 0.8 µg/mL (≈ 1.75 µM).

A further assay deals with Mannheimia haemolytica MH 13093 (XB0472-6014.1, BRD field isolate). The experiment in a line: MIC, broth-microdilution (CLSI VET01-A4), strain MH 13093. In kind it is cell-based. Particulars: Mannheimia haemolytica strain MH 13093, broth-microdilution; unit assumed. The essentials: as §1
In the case of `CC(C)(O)[C@H](NC(=O)c1ccc(C#Cc2ccc(CNC3CC3)s2)cc1)C(=O)NO` [Compound 290], the MIC MH 13093 is 0.2 µg/mL (≈ 0.468 µM).

As to `CC(C)(O)[C@H](NC(=O)c1ccc(C#Cc2ccc(CNCc3ccco3)cc2)cc1)C(=O)NO` [Compound 231], the MIC MH 13093 worked out at 0.4 µg/mL (≈ 0.867 µM).

For the compound `CC(C)([C@H](NC(=O)c1ccc(C#Cc2ccc(CNCC#N)s2)cc1)C(=O)NO)S(C)(=O)=O` [Compound 318], the MIC MH 13093 was found to be 1.6 µg/mL (≈ 3.27 µM).

For `CC(C)[C@H](NC(=O)c1ccc(C#Cc2ccc(CNCc3ccccn3)cc2)cc1)C(=O)NO` [Compound 169], the MIC MH 13093 is 0.8 µg/mL (≈ 1.75 µM).

In another assay the test system is Pasteurella multocida PM 10775 (080130003051, BRD field isolate). The experiment in a line: MIC, broth-microdilution (CLSI VET01-A4), strain PM 10775. The assay is classed as cell-based. Particulars: Pasteurella multocida strain PM 10775, broth-microdilution; unit assumed. In a few lines: as §1
Compound `CC(C)(O)[C@H](NC(=O)c1ccc(C#Cc2ccc(CNC3CC3)s2)cc1)C(=O)NO` [Compound 290] displayed an MIC PM 10775 of at most 0.1 µg/mL.

Take `CC(C)(O)[C@H](NC(=O)c1ccc(C#Cc2ccc(CNCc3ccco3)cc2)cc1)C(=O)NO` [Compound 231]: the MIC PM 10775 is at most 0.1 µg/mL.

As to `CC(C)([C@H](NC(=O)c1ccc(C#Cc2ccc(CNCC#N)s2)cc1)C(=O)NO)S(C)(=O)=O` [Compound 318], the MIC PM 10775 is at most 0.1 µg/mL.

`CC(C)[C@H](NC(=O)c1ccc(C#Cc2ccc(CNCc3ccccn3)cc2)cc1)C(=O)NO` [Compound 169] yielded an MIC PM 10775 of at most 0.1 µg/mL.

The next assay concerns Pasteurella multocida PM 6267 (P 2225 (L386), reference strain, mouse infection strain). The experiment in a line: MIC, broth-microdilution (CLSI VET01-A4), strain PM 6267. The assay is classed as cell-based. Particulars: Pasteurella multocida strain PM 6267, broth-microdilution; unit assumed. In a few lines: as §1
Compound `CC(C)(O)[C@H](NC(=O)c1ccc(C#Cc2ccc(CNC3CC3)s2)cc1)C(=O)NO` [Compound 290] had an MIC PM 6267 of at most 0.1 µg/mL.

For `CC(C)(O)[C@H](NC(=O)c1ccc(C#Cc2ccc(CNCc3ccco3)cc2)cc1)C(=O)NO` [Compound 231], the MIC PM 6267 is at most 0.1 µg/mL.

In the case of `CC(C)([C@H](NC(=O)c1ccc(C#Cc2ccc(CNCC#N)s2)cc1)C(=O)NO)S(C)(=O)=O` [Compound 318], the MIC PM 6267 was 0.8 µg/mL (≈ 1.64 µM).

With `CC(C)[C@H](NC(=O)c1ccc(C#Cc2ccc(CNCc3ccccn3)cc2)cc1)C(=O)NO` [Compound 169], the MIC PM 6267 was at most 0.1 µg/mL.

The next assay relates to Mannheimia haemolytica MH 6374 (ATCC 33396, reference strain). The experiment in a line: MIC, broth-microdilution (CLSI VET01-A4), strain MH 6374. In kind it is cell-based. The following applies: Mannheimia haemolytica strain MH 6374, broth-microdilution; unit assumed. The essentials: as §1
`CC(C)(O)[C@H](NC(=O)c1ccc(C#Cc2ccc(CNC3CC3)s2)cc1)C(=O)NO` [Compound 290]: the MIC MH 6374 is at most 0.1 µg/mL.

As for `CC(C)(O)[C@H](NC(=O)c1ccc(C#Cc2ccc(CNCc3ccco3)cc2)cc1)C(=O)NO` [Compound 231], the MIC MH 6374 is 0.2 µg/mL (≈ 0.433 µM).

With `CC(C)([C@H](NC(=O)c1ccc(C#Cc2ccc(CNCC#N)s2)cc1)C(=O)NO)S(C)(=O)=O` [Compound 318], the MIC MH 6374 amounted to 0.8 µg/mL (≈ 1.64 µM).

As to `CC(C)[C@H](NC(=O)c1ccc(C#Cc2ccc(CNCc3ccccn3)cc2)cc1)C(=O)NO` [Compound 169], the MIC MH 6374 stood at 0.8 µg/mL (≈ 1.75 µM).

Another assay concerns Mannheimia haemolytica MH 12587 (1071, BRD field isolate, macrolide-resistance: erm+, E+). The experiment in a line: MIC, broth-microdilution (CLSI VET01-A4), strain MH 12587. The assay is classed as cell-based. Particulars: Mannheimia haemolytica strain MH 12587, broth-microdilution; unit assumed. The essentials: as §1
As to `CC(C)(O)[C@H](NC(=O)c1ccc(C#Cc2ccc(CNC3CC3)s2)cc1)C(=O)NO` [Compound 290], the MIC MH 12587 was 0.4 µg/mL (≈ 0.936 µM).

For `CC(C)(O)[C@H](NC(=O)c1ccc(C#Cc2ccc(CNCc3ccco3)cc2)cc1)C(=O)NO` [Compound 231], the MIC MH 12587 is 0.8 µg/mL (≈ 1.73 µM).

Compound `CC(C)([C@H](NC(=O)c1ccc(C#Cc2ccc(CNCC#N)s2)cc1)C(=O)NO)S(C)(=O)=O` [Compound 318] registered an MIC MH 12587 of 1.6 µg/mL (≈ 3.27 µM).

`CC(C)[C@H](NC(=O)c1ccc(C#Cc2ccc(CNCc3ccccn3)cc2)cc1)C(=O)NO` [Compound 169] displayed an MIC MH 12587 of 1.6 µg/mL (≈ 3.5 µM).
